Where two headings read alike, the source gives them in different places.

This experiment concerns Herpes simplex 1 Virus (HSV-1). As to the kind of experiment: Activity against systemic HSV-1 infection in NMRI mice, oral treatment. It counts as in vivo, NMRI-Mäuse. The conditions noted are these: for ED50: read-out: IC50 (nach Reed und Muench); for mittlere Überlebenszeit (Tage): oral. An excerpt: Wirkung gegen systemische Herpes simplex 1 Virus (HSV-1) Infektion: NMRI-Mäuse, spezifisch pathogenfrei, im Gewicht von 15 bis 18 g wurden intraperitoneal mit HSV-1 infiziert und anschließend mit den erfindungsgemäßen Verbindungen oral therapiert. Die Behandlung erfolgte erstmals 3 Stunden nach der Infektion und wurde zweimal täglich über 4 Tage fortgesetzt. Der Behandlungserfolg wurde anhand des Krankheitsverlaufes und der Überlebensrate gegenüber der unbehandelten Infektionskontrolle bestimmt. Letztere erhielt anstelle der erfindungsgemäßen Verbindungen physiologische Kochsalzlösung appliziert. Die Beobachtungszeit betrug zwei Wochen. Tabelle 1 zeigt die Ergebnisse dieser Untersuchung.

The mark [1] stands for this setting: Human alphaherpesvirus 1, 336 h, NMRI mouse, HSV-1 i.p. infection, oral treatment, 9 doses (first 3 h after infection, then twice daily over 4 days), 2 weeks observation.

For `Nc1ncc2c(ncn2COC(CO)CO)n1` [Formel 1, R1=R2=H (=Verb. der Formel 1'), 2-Amino-7-[(1,3-dihydroxy-2-propoxy)methyl]purin, reference compound], under setting [1], the ED50 stood at 34.5 µmol/kg.
In the case of `COCC(=O)OCC(COC(=O)COC)OCn1cnc2nc(N)ncc21` [Beispiel 6, 2-Amino-7-[(1,3-bis-methoxyacetoxy-2-propoxy)methyl]purin], under setting [1], the ED50 was below 10 µmol/kg. Further, the “mittlere Überlebenszeit (Tage)” value (Dosierung 9 x 10 µmol/kg) came out at 9 Tage.
The corresponding values for `CCCCC(=O)OCC(COC(=O)CCCC)OCn1cnc2nc(N)ncc21` [Beispiel 2, 2-Amino-7-[(1,3-bis-valeroyloxy-2-propoxy)methyl]purin] are 12 µmol/kg and 9 ± 1,7 Tage.
For the compound `Nc1ncc2c(ncn2COC(CO)COC(=O)c2ccsc2)n1` (stereo not shown) [Beispiel 14], the ED50 under setting [1] amounted to 11.5 µmol/kg.
The same measure, in the same setting: under `Nc1ncc2c(ncn2COC(COC(=O)C2CCCCC2)COC(=O)C2CCCCC2)n1` [Beispiel 9, 2-Amino-7-[(1,3-bis-cyclohexancarbonyloxy-2-propoxy)methyl]purin] stands 5.6 µmol/kg.
On the same count and under the same terms, under `CCOCC(=O)OCC(COC(=O)COCC)OCn1cnc2nc(N)ncc21` [Beispiel 7, 2-Amino-7-[(1,3-bis-ethoxyacetoxy-2-propoxy)methyl]purin] stands 13.2 µmol/kg; under `Nc1ncc2c(ncn2COC(CO)COC(=O)C2CCCCC2)n1` (stereo not shown) [Beispiel 10, 2-Amino-7-[(1-cyclohexancarbonyloxy-3-hydroxy-2-propoxy)methyl] purin], 3.6 µmol/kg; under `Nc1ncc2c(ncn2COC(COC(=O)Cc2cccnc2)COC(=O)Cc2cccnc2)n1` [Beispiel 15], 10 µmol/kg.
Regarding `Nc1ncc2c(ncn2COC(COC(=O)c2ccccc2)COC(=O)c2ccccc2)n1` [Beispiel 11, 2-Amino-7-[(1,3-bis-benzoyloxy-2-propoxy)methyl]purin], the ED50 under setting [1] came out at 17.3 µmol/kg.
Turning to `CCCCC(=O)OCC(CO)OCn1cnc2nc(N)ncc21` (stereo not shown) [Beispiel 3, 2-Amino-7-[(1-hydroxy-3-valeroyloxy-2-propoxy)methyl]purin], the ED50 under setting [1] was below 9.3 µmol/kg. Also, the “mittlere Überlebenszeit (Tage)” value (Dosierung 9 x 9,3 µmol/kg) amounted to 10 Tage.
`Nc1ncc2c(ncn2COC(COC(=O)Cc2ccccc2)COC(=O)Cc2ccccc2)n1` [Beispiel 12, 2-Amino-7-[(1,3-bis-phenylacetoxy-2-propoxy)methyl]purin]: the ED50 (Human alphaherpesvirus 1, po, 336 h) was below 10 µmol/kg.
On to `CC(C)(C)C(=O)OCC(COC(=O)C(C)(C)C)OCn1cnc2nc(N)ncc21` [Beispiel 1, 2-Amino-7-[(1,3-bis-pivaloyloxy-2-propoxy)methyl]purin], for which the ED50 under setting [1] amounted to 19.7 µmol/kg.
Turning to `Nc1ncc2c(ncn2COC(COC(=O)c2ccsc2)COC(=O)c2ccsc2)n1` [Beispiel 13], under setting [1], the ED50 was found to be 5.6 µmol/kg.

(Values after patent publication EP0693071B1, “NEW CARBOXYLIC-ACID ESTERS OF 2-AMINO-7-(1,3-DIHYDROXY-2-PROPOXYMETHYL)PURINE, THE PREPARATION OF SUCH ESTERS AND THEIR USE” (HOECHST AKTIENGESELLSCHAFT, priority 1993, dated 1994).)
